# Source: patent publication US10961200B2, “Small molecule inhibitors of lactate dehydrogenase and methods of use thereof” (THE UNITED STATES OF AMERICA, AS REPRESENTED BY THE …, priority 2014, dated 2021)
# Target: Human LDHA (Homo sapiens (Human), UniProt P00338)
# Assay: human LDHA primary biochemical assay (resazurin/diaphorase coupled, fluorescence)
# Settings: LDHA inhibitory activity, assay of Example 1; activity level classes
# Text: Test compounds were placed in a Greiner Bio-One (Monroe, N.C.) 1536-well black solid bottom assay plate. 200 millimolar (mM) Tris HCl, pH 7.4, 100 micromolar […] EDTA and 0.01% TWEEN-20™, final concentration, was used as the assay buffer. The LDHA reagent was 2 nanomolar (nM) Human LDHA (Meridian Life Science, Inc., Memphis, Tenn.), final concentration, in assay buffer.
row,SMILES,IC50 [nM]
1,"Nc1c(Cc2ccc(S(N)(=O)=O)cc2)c(-c2ccc(F)c(F)c2)nn1-c1nc(C(=O)O)cs1 [Compound 38, 2-(5-amino-3-(3,4-difluorophenyl)-4-(4-sulfamoylbenzyl)-1H-pyrazol-1-yl)thiazole-4-carboxylic acid]",< 100
2,"NS(=O)(=O)c1ccc(Cc2c(-c3ccc(F)c(F)c3)nn(-c3nc(C(=O)O)cs3)c2C(F)(F)F)cc1 [Compound 39, 2-(3-(3,4-difluorophenyl)-4-(4-sulfamoylbenzyl)-5-(trifluoromethyl)-1H-pyrazol-1-yl)thiazole-4-carboxylic acid]",< 100
3,"NS(=O)(=O)c1ccc(Cc2cn(-c3nc(C(=O)O)cs3)nc2-c2ccc(F)c(F)c2)cc1 [Compound 41, 2-(3-(3,4-difluorophenyl)-4-(4-sulfamoylbenzyl)-1H-pyrazol-1-yl)thiazole-4-carboxylic acid]",< 100
4,"NS(=O)(=O)c1ccc(Cc2c(-c3ccccc3)nn(-c3nc(C(=O)O)cs3)c2C(F)(F)F)cc1 [Compound 44, 2-(3-phenyl-4-(4-sulfamoylbenzyl)-5-(trifluoromethyl)-1H-pyrazol-1-yl)thiazole-4-carboxylic acid]",< 100
5,"NS(=O)(=O)c1ccc(Cc2c(-c3ccccc3)nn(-c3nc(C(=O)O)cs3)c2I)cc1 [Compound 45, 2-(5-iodo-3-phenyl-4-(4-sulfamoylbenzyl)-1H-pyrazol-1-yl)thiazole-4-carboxylic acid]",< 100
6,"NS(=O)(=O)c1ccc(NCc2c(-c3ccccc3)n[nH]c2O)cc1 [Compound 49, 4-(((5-hydroxy-3-phenyl-1H-pyrazol-4-yl)methyl)amino)benzenesulfonamide]",> 57000
7,N#Cc1c(Cc2ccc(S(N)(=O)=O)cc2)c(-c2ccccc2)nn1-c1nc(C(=O)O)cs1 [Compound 50],< 100
8,"COc1c(Cc2ccc(S(N)(=O)=O)cc2)c(-c2ccc(F)c(F)c2)nn1-c1nc(C(=O)O)cs1 [Compound 60, 2-(3-(3,4-difluorophenyl)-5-methoxy-4-(4-sulfamoylbenzyl)-1H-pyrazol-1-yl)thiazole-4-carboxylic acid]",100 to 1000
9,"O=C(O)c1csc(-n2nc(-c3ccc(F)c(F)c3)cc2CO)n1 [Compound 64, 2-(3-(3,4-difluorophenyl)-5-(hydroxymethyl)-1H-pyrazol-1-yl)thiazole-4-carboxylic acid]",> 57000
10,"Cc1nn(-c2nc(C(=O)O)cs2)c(O)c1Cc1ccc(S(N)(=O)=O)cc1 [Compound 66, 2-(5-hydroxy-3-methyl-4-(4-sulfamoylbenzyl)-1H-pyrazol-1-yl)thiazole-4-carboxylic acid]",> 57000
11,"NC(=O)c1ccc(Cc2c(-c3cccc(-c4ccccc4)c3)nn(-c3nc(C(=O)O)cs3)c2O)cc1 [Compound 67, 2-(3-([1,1′-biphenyl]-3-yl)-4-(4-carbamoylbenzyl)-5-hydroxy-1H-pyrazol-1-yl)thiazole-4-carboxylic acid]",> 57000
12,"O=C(O)c1csc(-n2nc(-c3ccc(F)c(F)c3)cc2C(=O)O)n1 [Compound 71, 2-(5-carboxy-3-(3,4-difluorophenyl)-1H-pyrazol-1-yl)thiazole-4-carboxylic acid]",> 57000
13,"NS(=O)(=O)c1ccc(Cc2c(-c3cccc4ccccc34)nn(-c3nc(C(=O)O)cs3)c2O)cc1 [Compound 81, 2-(5-hydroxy-3-(naphthalen-1-yl)-4-(4-sulfamoylbenzyl)-1H-pyrazol-1-yl)thiazole-4-carboxylic acid]",1000 to 57000
14,"NS(=O)(=O)c1ccc(Cc2c(-c3cccnc3)nn(-c3nc(C(=O)O)cs3)c2O)cc1 [Compound 82, 2-(5-hydroxy-3-(pyridin-3-yl)-4-(4-sulfamoylbenzyl)-1H-pyrazol-1-yl)thiazole-4-carboxylic acid]",1000 to 57000

# Same assay, conditions: read-out: Inhibitory activity IC50
row,SMILES,IC50 [nM]
1,"NS(=O)(=O)c1ccc(Cc2cn(-c3nc(C(=O)O)cs3)c3ccc(OC4CCOCC4)cc23)cc1 [Compound 36, 2-(3-(4-sulfamoylbenzyl)-5-((tetrahydro-2H-pyran-4-yl)oxy)-1H-indol-1-yl)thiazole-4-carboxylic acid]",100 to 1000
2,"NS(=O)(=O)c1ccc(Cc2cn(-c3nc(C(=O)O)cs3)c3cc(C(=O)N4CCOCC4)ccc23)cc1 [Compound 37, 2-(6-(morpholine-4-carbonyl)-3-(4-sulfamoylbenzyl)-1H-indol-1-yl)thiazole-4-carboxylic acid]",1000 to 57000
3,"CCOC(=O)c1csc(-n2nc(-c3cccc(-c4ccccc4)c3)c(Cc3ccc(S(N)(=O)=O)cc3)c2N)n1 [Compound 56, ethyl 2-(3-([1,1′-biphenyl]-3-yl)-5-amino-4-(4-sulfamoylbenzyl)-1H-pyrazol-1-yl)thiazole-4-carboxylate]",1000 to 57000
4,"Cc1sc(-n2nc(-c3ccccc3)c(Cc3ccc(S(N)(=O)=O)cc3)c2N)nc1C(=O)O [Compound 57, 2-(5-amino-3-phenyl-4-(4-sulfamoylbenzyl)-1H-pyrazol-1-yl)-5-methylthiazole-4-carboxylic acid]",100 to 1000
5,"CCOC(=O)c1csc(-n2nc(-c3ccccc3)c(Cc3ccc(S(N)(=O)=O)cc3)c2N)n1 [Compound 58, ethyl 2-(5-amino-3-phenyl-4-(4-sulfamoylbenzyl)-1H-pyrazol-1-yl)thiazole-4-carboxylate]",1000 to 57000
6,"N#CCc1c(Cc2ccc(S(N)(=O)=O)cc2)c(-c2ccccc2)nn1-c1nc(C(=O)O)cs1 [Compound 59, 2-(5-(cyanomethyl)-3-phenyl-4-(4-sulfamoylbenzyl)-1H-pyrazol-1-yl)thiazole-4-carboxylic acid]",100 to 1000
7,"CCOc1c(Cc2ccc(S(N)(=O)=O)cc2)c(-c2ccc(F)c(F)c2)nn1-c1nc(C(=O)O)cs1 [Compound 61, 2-(3-(3,4-difluorophenyl)-5-ethoxy-4-(4-sulfamoylbenzyl)-1H-pyrazol-1-yl)thiazole-4-carboxylic acid]",100 to 1000
8,"O=C(O)c1csc(-n2nc(-c3ccccc3)cc2C(F)(F)F)n1 [Compound 62, 2-(3-phenyl-5-(trifluoromethyl)-1H-pyrazol-1-yl)thiazole-4-carboxylic acid]",1000 to 57000
9,"O=C(O)c1csc(-n2nc(-c3cccc(-c4ccccc4F)c3)cc2O)n1 [Compound 63, 2-(3-(2′-fluoro-[1,1′-biphenyl]-3-yl)-5-hydroxy-1H-pyrazol-1-yl)thiazole-4-carboxylic acid]",> 57000
10,"O=C(O)c1ccc(Cc2c(-c3cccc(-c4ccccc4)c3)nn(-c3nc(C(=O)O)cs3)c2O)cc1 [Compound 68, 2-(3-([1,1′-biphenyl]-3-yl)-4-(4-carboxybenzyl)-5-hydroxy-1H-pyrazol-1-yl)thiazole-4-carboxylic acid]",> 57000
11,"NC(=O)c1csc(-n2nc(-c3cccc(-c4ccccc4)c3)c(Cc3ccc(S(N)(=O)=O)cc3)c2O)n1 [Compound 70, 2-(3-([1,1′-biphenyl]-3-yl)-5-hydroxy-4-(4-sulfamoylbenzyl)-1H-pyrazol-1-yl)thiazole-4-carboxamide]",> 57000
12,"NS(=O)(=O)c1ccc(Cc2c(-c3cccc(-c4ccccc4)c3)nn(-c3nc(-c4nnn[nH]4)cs3)c2O)cc1 [Compound 72, 4-((1-(4-(1H-tetrazol-5-yl)thiazol-2-yl)-3-([1,1′-biphenyl]-3-yl)-5-hydroxy-1H-pyrazol-4-yl)methyl)benzenesulfonamide]",1000 to 57000
13,"CCOC(=O)c1csc(-n2nc(-c3cccc(-c4ccccc4)c3)c(Cc3ccc(S(N)(=O)=O)cc3)c2O)n1 [Compound 73, ethyl 2-(3-([1,1′-biphenyl]-3-yl)-5-hydroxy-4-(4-sulfamoylbenzyl)-1H-pyrazol-1-yl)thiazole-4-carboxylate]",1000 to 57000
14,"N#CCc1cc(-c2ccc(F)c(F)c2)nn1-c1nc(C(=O)O)cs1 [Compound 74, 2-(5-(cyanomethyl)-3-(3,4-difluorophenyl)-1H-pyrazol-1-yl)thiazole-4-carboxylic acid]",1000 to 57000
15,"O=C(O)c1csc(-n2nc(-c3ccc(F)c(F)c3)cc2Cc2nnn[nH]2)n1 [Compound 75, 2-(5-((1H-tetrazol-5-yl)methyl)-3-(3,4-difluorophenyl)-1H-pyrazol-1-yl)thiazole-4-carboxylic acid]",1000 to 57000
16,"NS(=O)(=O)c1ccc(-c2cn(-c3nc(C(=O)O)cs3)nc2-c2ccccc2)cc1 [Compound 76, 2-(3-phenyl-4-(4-sulfamoylphenyl)-1H-pyrazol-1-yl)thiazole-4-carboxylic acid]",1000 to 57000
17,"CCOC(=O)c1csc(-n2nc(-c3ccccc3)c(Cc3ccc(S(N)(=O)=O)cc3)c2C(F)(F)F)n1 [Compound 77, ethyl 2-(3-phenyl-4-(4-sulfamoylbenzyl)-5-(trifluoromethyl)-1H-pyrazol-1-yl)thiazole-4-carboxylate]",1000 to 57000
18,"NC(=O)c1csc(-n2nc(-c3ccccc3)c(Cc3ccc(S(N)(=O)=O)cc3)c2I)n1 [Compound 78, 2-(5-iodo-3-phenyl-4-(4-sulfamoylbenzyl)-1H-pyrazol-1-yl)thiazole-4-carboxamide]",1000 to 57000
19,"NC(=O)c1csc(-n2cc(Cc3ccc(S(N)(=O)=O)cc3)c(-c3ccccc3)n2)n1 [Compound 79, 2-(3-phenyl-4-(4-sulfamoylbenzyl)-1H-pyrazol-1-yl)thiazole-4-carboxamide]",1000 to 57000
20,"NS(=O)(=O)c1ccc(Cc2c(-c3ccccc3)nn(-c3nc(C(=O)O)cs3)c2Nc2cccnc2)cc1 [Compound 80, 2-(3-phenyl-5-(pyridin-3-ylamino)-4-(4-sulfamoylbenzyl)-1H-pyrazol-1-yl)thiazole-4-carboxylic acid]",1000 to 57000
21,"Nc1c(Cc2ccc(S(N)(=O)=O)cc2)c(-c2ccccc2)nn1-c1ccc(Cl)nn1 [Compound 83, 4-((5-amino-1-(6-chloropyridazin-3-yl)-3-phenyl-1H-pyrazol-4-yl)methyl)benzenesulfonamide]",1000 to 57000
22,"Cc1cccc(C(=O)n2nc(-c3ccccc3)c(Cc3ccc(S(N)(=O)=O)cc3)c2N)c1 [Compound 84, 4-((5-amino-1-(3-methylbenzoyl)-3-phenyl-1H-pyrazol-4-yl)methyl)benzenesulfonamide]",1000 to 57000
